Assay results published in ChEMBL document CHEMBL3045513, “Design, synthesis, and biological evaluation of novel 2,4-thiazolidinedione derivatives as histone deacetylase inhibitors targeting liver cancer cell line” (Med Chem Res, 2012).
The source made the active and inactive calls. No cut-off for these calls is given here.

Experiments:
[1] = target: T1, Histone deacetylase (Homo sapiens) (UniProt Q13547+O15379+Q9UBN7+Q92769+Q9UQL6+Q8WUI4+Q9BY41+Q96DB2+P56524+Q9UKV0+Q969S8); conditions: HepG2, 1 mM
Description: Inhibition of histone deacetylase in Homo sapiens (human) HepG2 cells at 1 mM after 8 hr by colorimetry

[2] = system: HepG2; assay: Antiproliferative activity against Homo sapiens (human) HepG2 cells at 100 uM after 120 hr by MTT assay; assay type: functional; conditions: HepG2, 120 h
[3] = target: T1, Histone deacetylase (Homo sapiens); assay: Inhibition of histone deacetylase in Homo sapiens (human) HepG2 nuclear extract assessed as hyperacetylation of H3 at 100 uM after 8 hr by TAU PAGE analysis; assay type: protein assay
[4] = Cytotoxicity against Homo sapiens (human) WRL68 cells at 100 uM after 120 hr by MTT assay; assay type: cell-based; conditions: read-out: INH
[5] = system: HepG2; assay: Antiproliferative activity against Homo sapiens (human) HepG2 cells at 100 uM after 48 hr by MTT assay; assay type: functional; conditions: HepG2, 48 h
[6] = target: T1, Histone deacetylase (Homo sapiens); assay: Inhibition of histone deacetylase in Homo sapiens (human) HepG2 cells at 100 uM after 8 hr by colorimetry; assay type: cell-based
[7] = system: HepG2; assay: Antiproliferative activity against Homo sapiens (human) HepG2 cells assessed as elongated shaped cells; assay type: functional, cell-based
[8] = target: T1, Histone deacetylase (Homo sapiens); assay: Inhibition of histone deacetylase in Homo sapiens (human) HepG2 nuclear extract assessed as low level acetylation of H2B at 100 uM after 8 hr by TAU PAGE analysis; assay type: protein assay
[9] = target: T1, Histone deacetylase (Homo sapiens); assay: Inhibition of histone deacetylase in Homo sapiens (human) HepG2 nuclear extract assessed as hyperacetylation of H4 at 100 uM after 8 hr by TAU PAGE analysis; assay type: protein assay
[10] = target: T1, Histone deacetylase (Homo sapiens); assay: Inhibition of histone deacetylase in Homo sapiens (human) HepG2 cells assessed as hyperacetylation of H3 at 100 uM after 8 hr by Western blot analysis; assay type: cell-based
[11] = Cytotoxicity against Homo sapiens (human) WRL68 cells at 100 uM after 48 hr by MTT assay; assay type: cell-based; conditions: read-out: INH
[12] = target: T1, Histone deacetylase (Homo sapiens); assay: Inhibition of histone deacetylase in Homo sapiens (human) HepG2 nuclear extract assessed as low level acetylation of H2A at 100 uM after 8 hr by TAU PAGE analysis; assay type: protein assay

Row | SMILES | inhibition [1] | inhibition at 100 µM [2] | Activity [3] | cytotoxicity at 120 h, 100 µM [4] | inhibition at 100 µM [5] | inhibition [6] | Activity [7] | Activity [8] | Activity [9] | Activity [10] | cytotoxicity at 48 h, 100 µM [11] | Activity [12]
1 | CCCC(=O)[O-].[Na+] | 52.3% | – | – | – | – | – | – | – | – | – | – | –
2 | O=C(NCCCCCCN1C(=O)CSC1=O)c1ccccc1 | – | 83% | Active | 92.3% | 42.3% | 42.1% | Active | Active | Active | Active | 34.7% | Active
3 | O=C1CSC(=O)N1CCCCCCNS(=O)(=O)c1ccccc1 | – | 69.5% | Active | 55.6% | 57.3% | 56.9% | Active | Active | Active | Active | 37.5% | Active
